{"source": "patent US6362369B1", "about": "“Phthalic acid diamide derivatives fluorine-containing aniline compounds as starting material, agricultural and horticultural insecticides, and a method for application of the insecticides” (Nihon Nohyaku Co., Ltd., priority 1997, dated 2002)", "format_in_all_cases": "in vivo", "key": {"[1]": {"tested_on": "rice leafroller (Cnaphalocrocis medinalis)", "assay": "Insecticidal effect on rice leafroller (Test Example 3)", "conditions": "500 ppm, 25° C., humidity 70%; for Insecticidal effect on rice leafroller (Test Example 3), judged grade / Insecticidal effect (Test Example 3), judged from mortality: rice lamina dip; for Insecticidal effect on rice leafroller (Test Example 3), judged grade: third-instar larvae; for Insecticidal effect on rice leafroller (Test Example 3), judged grade / Insecticidal effect, Test Example 3: four days after inoculation; for Insecticidal effect, Test Example 3: rice lamina immersed; for Insecticidal effect (Test Example 3), judged from mortality: 4 days after inoculation", "summary_of_the_method": "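Groups of 10 third-instar larvae, in triplicate, are placed on air-dried lamina resting on wet filter paper. Incubation runs four days at 25° C with 70% humidity before survivors and dead are tallied.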"}, "[2]": {"tested_on": "common cutworm (Spodoptera Litura)", "assay": "Insecticidal effect on common cutworm (Test Example 2)", "conditions": "500 ppm, 25° C.; for Insecticidal effect on common cutworm (Test Example 2), judged grade / Insecticidal effect (Test Example 2), judged from mortality: cabbage leaf dip; for Insecticidal effect on common cutworm (Test Example 2), judged grade: second-instar larvae; for Insecticidal effect on common cutworm (Test Example 2), judged grade / Insecticidal effect, Test Example 2: eight days after inoculation; for Insecticidal effect, Test Example 2: cabbage leaf immersed; for Insecticidal effect (Test Example 2), judged from mortality: 8 days after inoculation", "summary_of_the_method": "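After the treated material air-dries, it goes into a dish, second-instar larvae are added, and the dish is closed. Incubation runs at 25° C. On day eight, dead and living larvae are scored, and the calculated mortality is rated on an effect scale.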"}, "[3]": {"tested_on": "diamondback moth (Plutella xylostella)", "assay": "Insecticidal effect on diamondback moth (Test Example 1)", "conditions": "for Insecticidal effect on diamondback moth (Test Example 1), judged grade: mortality judged according to the criterion shown in Test Example 1; for Insecticidal effect, Test Example 1 / Insecticidal effect (Test Example 1), judged from mortality: diamondback moth; for Insecticidal effect (Test Example 1), judged from mortality: judged by the criterion of Test Example 1", "summary_of_the_method": "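Read-out was mortality from hatched-insect counts taken 6 days after the egg-bearing cabbage seedling was immersed, graded by set criteria. Seedlings were air-dried and kept at 25° C after treatment. Groups of 10 insects, in triplicate.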"}, "[4]": {"conditions": "third-instar larvae of rice leafroller"}, "[5]": {"conditions": "second-instar larvae of common cutworm"}, "[6]": {"conditions": "judged by the mortality criterion of Test Example 1"}, "[7]": {"conditions": "rice leafroller third-instar larvae"}, "[8]": {"conditions": "common cutworm second-instar larvae"}, "[9]": {"conditions": "mortality judged by criterion of Test Example 1"}}, "data": [{"smiles": "Cc1cc(OCC(F)(F)C(F)F)ccc1NC(=O)c1cccc([N+](=O)[O-])c1C(=O)NC(C)C", "note": "[compound 699]", "values": [{"measurement": "Insecticidal effect on rice leafroller (Test Example 3), judged grade", "setting": "[1]", "result": "D (79-50)"}, {"measurement": "Insecticidal effect on common cutworm (Test Example 2), judged grade", "setting": "[2]", "result": "A (100)"}, {"measurement": "Insecticidal effect on diamondback moth (Test Example 1), judged grade", "setting": "[3]", "result": "A (100)"}]}, {"smiles": "COc1ccc(NC(=O)c2cccc(Br)c2C(=O)NC(C)C)c(C)c1", "note": "[compound 282]", "values": [{"measurement": "Insecticidal effect, Test Example 3", "setting": "[1]; [4]", "result": "A (100)"}, {"measurement": "Insecticidal effect, Test Example 2", "setting": "[2]; [5]", "result": "A (100)"}, {"measurement": "Insecticidal effect, Test Example 1", "setting": "[3]; [6]", "result": "A (100)"}]}, {"smiles": "Cc1cc(C(F)(F)C(F)(F)F)ccc1NC(=O)c1cccc(Cl)c1C(=O)NCc1cccc(Cl)c1Cl", "note": "[compound 1353]", "values": [{"measurement": "Insecticidal effect, Test Example 3", "setting": "[1]; [7]", "result": "A (100)"}, {"measurement": "Insecticidal effect, Test Example 2", "setting": "[2]; [8]", "result": "A (100)"}, {"measurement": "Insecticidal effect, Test Example 1", "setting": "[3]; [9]", "result": "A (100)"}]}, {"smiles": "Cc1cc(C(F)(F)C(F)(F)C(F)(F)C(F)(F)C(F)(F)C(F)(F)F)ccc1NC(=O)c1cccc(Cl)c1C(=O)NC(C)C", "note": "[compound 133]", "values": [{"measurement": "Insecticidal effect, Test Example 3", "setting": "[1]; [4]", "result": "A (100)"}, {"measurement": "Insecticidal effect, Test Example 2", "setting": "[2]; [5]", "result": "A (100)"}, {"measurement": "Insecticidal effect, Test Example 1", "setting": "[3]; [6]", "result": "A (100)"}]}, {"smiles": "CC(C)NC(=O)c1c(Cl)cccc1C(=O)Nc1ccc(SC(F)(F)Br)cc1", "note": "[compound 1110]", "values": [{"measurement": "Insecticidal effect, Test Example 3", "setting": "[1]; [7]", "result": "A (100)"}, {"measurement": "Insecticidal effect, Test Example 2", "setting": "[2]; [8]", "result": "C (89-80)"}, {"measurement": "Insecticidal effect, Test Example 1", "setting": "[3]; [9]", "result": "A (100)"}]}, {"smiles": "CC(C)NC(=O)c1c(Cl)cccc1C(=O)Nc1ccc(C=C(Cl)Cl)cc1", "note": "[compound 915]", "values": [{"measurement": "Insecticidal effect on rice leafroller (Test Example 3), judged grade", "setting": "[1]", "result": "A (100)"}, {"measurement": "Insecticidal effect on common cutworm (Test Example 2), judged grade", "setting": "[2]", "result": "A (100)"}, {"measurement": "Insecticidal effect on diamondback moth (Test Example 1), judged grade", "setting": "[3]", "result": "A (100)"}]}, {"smiles": "CCN(CC)C(=O)c1c(Cl)cccc1C(=O)Nc1ccc(OC(F)(F)C(F)F)cc1C", "note": "[compound 1539]", "values": [{"measurement": "Insecticidal effect (Test Example 3), judged from mortality", "setting": "[1]; [4]", "result": "A (100)"}, {"measurement": "Insecticidal effect (Test Example 2), judged from mortality", "setting": "[2]; [5]", "result": "A (100)"}, {"measurement": "Insecticidal effect (Test Example 1), judged from mortality", "setting": "[3]", "result": "A (100)"}]}, {"smiles": "Cc1ccc(F)cc1NC(=O)c1c(F)cccc1C(=O)NC(C)C", "note": "[compound 549]", "values": [{"measurement": "Insecticidal effect on rice leafroller (Test Example 3), judged grade", "setting": "[1]", "result": "D (79-50)"}, {"measurement": "Insecticidal effect on common cutworm (Test Example 2), judged grade", "setting": "[2]", "result": "A (100)"}, {"measurement": "Insecticidal effect on diamondback moth (Test Example 1), judged grade", "setting": "[3]", "result": "A (100)"}]}, {"smiles": "Cc1cc(Cl)ccc1NC(=O)c1c(Br)cccc1C(=O)NC(C)C", "note": "[compound 306]", "values": [{"measurement": "Insecticidal effect, Test Example 3", "setting": "[1]; [4]", "result": "A (100)"}, {"measurement": "Insecticidal effect, Test Example 2", "setting": "[2]; [5]", "result": "A (100)"}, {"measurement": "Insecticidal effect, Test Example 1", "setting": "[3]; [6]", "result": "A (100)"}]}, {"smiles": "Cc1cc(OC(F)F)ccc1NC(=O)c1cccc(I)c1C(=O)NC(C)(C)C", "note": "[compound 1020]", "values": [{"measurement": "Insecticidal effect, Test Example 3", "setting": "[1]; [7]", "result": "A (100)"}, {"measurement": "Insecticidal effect, Test Example 2", "setting": "[2]; [8]", "result": "A (100)"}, {"measurement": "Insecticidal effect, Test Example 1", "setting": "[3]; [9]", "result": "A (100)"}]}, {"smiles": "Cc1cc(C(F)(F)C(F)(F)C(F)(F)C(F)(F)F)ccc1NC(=O)c1c(F)cccc1C(=O)NC(C)C", "note": "[compound 557]", "values": [{"measurement": "Insecticidal effect on rice leafroller (Test Example 3), judged grade", "setting": "[1]", "result": "B (99-90)"}, {"measurement": "Insecticidal effect on common cutworm (Test Example 2), judged grade", "setting": "[2]", "result": "C (89-80)"}, {"measurement": "Insecticidal effect on diamondback moth (Test Example 1), judged grade", "setting": "[3]", "result": "A (100)"}]}, {"smiles": "Cc1cc(Br)ccc1NC(=O)c1ccccc1C(=O)NC(C)C", "note": "[compound 52]", "values": [{"measurement": "Insecticidal effect, Test Example 3", "setting": "[1]; [4]", "result": "A (100)"}, {"measurement": "Insecticidal effect, Test Example 2", "setting": "[2]; [5]", "result": "A (100)"}, {"measurement": "Insecticidal effect, Test Example 1", "setting": "[3]; [6]", "result": "A (100)"}]}, {"smiles": "Cc1c(Cl)cccc1NC(=O)c1ccc(Cl)cc1C(=O)NC(C)C", "note": "[compound 176]", "values": [{"measurement": "Insecticidal effect, Test Example 3", "setting": "[1]; [4]", "result": "A (100)"}, {"measurement": "Insecticidal effect, Test Example 2", "setting": "[2]; [5]", "result": "D (79-50)"}, {"measurement": "Insecticidal effect, Test Example 1", "setting": "[3]; [6]", "result": "A (100)"}]}, {"smiles": "Cc1c(Cl)cccc1NC(=O)c1cccc(Cl)c1C(=O)NC(C)C", "note": "[compound 118]", "values": [{"measurement": "Insecticidal effect, Test Example 3", "setting": "[1]; [4]", "result": "A (100)"}, {"measurement": "Insecticidal effect, Test Example 2", "setting": "[2]; [5]", "result": "A (100)"}, {"measurement": "Insecticidal effect, Test Example 1", "setting": "[3]; [6]", "result": "A (100)"}]}, {"smiles": "CCC(C)(C)NC(=O)c1c(I)cccc1C(=O)Nc1ccc(C(F)(F)C(F)(F)F)cc1C", "note": "[compound 1565]", "values": [{"measurement": "Insecticidal effect (Test Example 3), judged from mortality", "setting": "[1]; [4]", "result": "A (100)"}, {"measurement": "Insecticidal effect (Test Example 2), judged from mortality", "setting": "[2]; [5]", "result": "A (100)"}, {"measurement": "Insecticidal effect (Test Example 1), judged from mortality", "setting": "[3]", "result": "A (100)"}]}, {"smiles": "CC(C)(C)NC(=O)c1c(I)cccc1C(=O)Nc1ccc(OC(F)(F)F)cc1Cl", "note": "[compound 1023]", "values": [{"measurement": "Insecticidal effect, Test Example 3", "setting": "[1]; [7]", "result": "A (100)"}, {"measurement": "Insecticidal effect, Test Example 2", "setting": "[2]; [8]", "result": "A (100)"}, {"measurement": "Insecticidal effect, Test Example 1", "setting": "[3]; [9]", "result": "A (100)"}]}, {"smiles": "Cc1c(NC(=O)c2cccc(Cl)c2C(=O)NC(C)C)cccc1OC(F)(F)C(F)Cl", "note": "(stereo not drawn) [compound 142]", "values": [{"measurement": "Insecticidal effect, Test Example 3", "setting": "[1]; [4]", "result": "B (99-90)"}, {"measurement": "Insecticidal effect, Test Example 2", "setting": "[2]; [5]", "result": "A (100)"}, {"measurement": "Insecticidal effect, Test Example 1", "setting": "[3]; [6]", "result": "A (100)"}]}, {"smiles": "CC(C)(C)NC(=O)c1c(I)cccc1C(=O)Nc1ccc(Cl)c2c1OC(F)(F)O2", "note": "[compound 1747]", "values": [{"measurement": "Insecticidal effect (Test Example 3), judged from mortality", "setting": "[1]; [4]", "result": "A (100)"}, {"measurement": "Insecticidal effect (Test Example 2), judged from mortality", "setting": "[2]; [5]", "result": "C (89-80)"}, {"measurement": "Insecticidal effect (Test Example 1), judged from mortality", "setting": "[3]", "result": "A (100)"}]}, {"smiles": "Cc1cc(OC(F)F)ccc1NC(=O)c1ccc2ccccc2c1C(=O)NC(C)C", "note": "[compound 819]", "values": [{"measurement": "Insecticidal effect on rice leafroller (Test Example 3), judged grade", "setting": "[1]", "result": "A (100)"}, {"measurement": "Insecticidal effect on common cutworm (Test Example 2), judged grade", "setting": "[2]", "result": "B (99-90)"}, {"measurement": "Insecticidal effect on diamondback moth (Test Example 1), judged grade", "setting": "[3]", "result": "A (100)"}]}]}
